Among the data in BindingDB's records for doi:10.1021/acsmedchemlett.8b00549 (Stellenbosch University, 2019) are IC50 values, retold here.

A short description of experiment [1]: Inhibition of HIV1 reverse transcriptase K103N mutant in HIV1 infected HEK293T cells harboring luciferase gene assessed as reduction in viral infection after 48 hrs by Bright-Glo luciferase assay.
A short description of experiment [2]: Inhibition of HIV1 reverse transcriptase Y188C mutant in HIV1 infected HEK293T cells harboring luciferase gene assessed as reduction in viral infection after 48 hrs by Bright-Glo luciferase assay.
A short description of experiment [3]: Inhibition of HIV1 reverse transcriptase Y181C mutant in HIV1 infected HEK293T cells harboring luciferase gene assessed as reduction in viral infection after 48 hrs by Bright-Glo luciferase assay.
The nature of experiment [4]: Inhibition of HIV1 reverse transcriptase V106M mutant in HIV1 infected HEK293T cells harboring luciferase gene assessed as reduction in viral infection after 48 hrs by Bright-Glo luciferase assay.
A short description of experiment [5]: Inhibition of HIV1 reverse transcriptase G190A mutant in HIV1 infected HEK293T cells harboring luciferase gene assessed as reduction in viral infection after 48 hrs by Bright-Glo luciferase assay.
Experiment [6] in a line: Inhibition of HIV1 reverse transcriptase Y188H mutant in HIV1 infected HEK293T cells harboring luciferase gene assessed as reduction in viral infection after 48 hrs by Bright-Glo luciferase assay.
The nature of experiment [7]: Inhibition of wild-type HIV1 reverse transcriptase in HIV1 infected HEK293T cells harboring luciferase gene assessed as reduction in viral infection after 48 hrs by Bright-Glo luciferase assay.
The nature of experiment [8]: Inhibition of HIV1 reverse transcriptase K103N/Y181C double mutant in HIV1 infected HEK293T cells harboring luciferase gene assessed as reduction in viral infection after 48 hrs by Bright-Glo luciferase assay.

Some results are limits rather than exact numbers.

Turning to `Cn1c(=O)[nH]c2cccc(Oc3cc(Cl)cc(C#N)c3)c21`, the 50% inhibitory concentration (IC50) (in general, the concentration at which inhibition is half-maximal) was found to be 0.126 µM in experiment [1]; 0.236 µM in experiment [2]; 0.055 µM in experiment [3]; 0.494 µM in experiment [4]; 0.107 µM in experiment [5]; 0.074 µM in experiment [6]. Besides, the concentration for half-maximal inhibition (IC50) in experiment [7] is 0.029 µM.

For the compound `CCn1c(=O)[nH]c2cccc(Oc3cc(C#N)cc(/C=C/C#N)c3)c21`, the half-maximal inhibitory concentration (IC50) in experiment [1] was 0.166 µM; in experiment [2] it was 0.014 µM; in experiment [3], 0.073 µM; in experiment [4] it was 0.926 µM; in experiment [5] it was 0.377 µM; in experiment [6] it was 0.468 µM. In addition, the half-maximal inhibitory concentration (IC50) in experiment [7] is 0.049 µM; in experiment [8] it was 0.051 µM.

For the compound `CC1(C)OC(=O)Nc2cccc(Oc3cc(Cl)cc(C#N)c3)c21`, the IC50 is 0.798 µM in experiment [1]; 0.007 µM in experiment [2]; 0.028 µM in experiment [3]; 0.63 µM in experiment [4]; 2.76 µM in experiment [5]; 1.15 µM in experiment [6]. The IC50 worked out at 0.021 µM in experiment [7] and 0.894 µM in experiment [8].

Consider `CCn1c(=O)[nH]c2cccc(Oc3cc(Cl)cc(C#N)c3)c21`, for which the IC50 in experiment [1] turned out to be 0.111 µM; in experiment [2] it was 0.007 µM; in experiment [3], 0.018 µM; in experiment [4], 0.293 µM; in experiment [5], 0.126 µM; in experiment [6] it was 0.415 µM. Moreover, the IC50 was 0.026 µM in experiment [7] and 0.052 µM in experiment [8].

Regarding `CCn1c(=O)[nH]c2cccc(Oc3ccccc3)c21`, the half-maximal inhibitory concentration (IC50) in experiment [7] was 3.88 µM.

For `CCC(c1ccccc1)n1c(=O)[nH]c2ccc(Cl)cc21` (stereo unspecified), the half-maximal inhibitory concentration (IC50) in experiment [1] was greater than 0.2 µM; in experiment [3], greater than 0.2 µM; in experiment [7], 0.036 µM.

As to `CCOC(=O)c1[nH]c2ccc(Cl)cc2c1C(SC)c1ccccc1` (stereo unspecified), the half-inhibitory concentration (IC50) in experiment [7] was found to be 0.039 µM.

Regarding `CCOC(=O)c1[nH]c2ccc(Cl)cc2c1C(OC)c1ccccc1` (stereo unspecified), the IC50 in experiment [7] was determined as 0.016 µM.

Turning to `CCCn1c(=O)[nH]c2cccc(Oc3cc(Cl)cc(C#N)c3)c21`, the IC50 in experiment [7] came out at 0.05 µM.

As for `CCn1c(=O)[nH]c2cccc(Oc3ccnc(Cl)c3)c21`, the half-inhibitory concentration (IC50) in experiment [7] was greater than 44.1 µM.

For `CCn1c(=O)[nH]c2cccc(Oc3cc(C#N)ccn3)c21`, the concentration for half-maximal inhibition (IC50) in experiment [7] came out at 1.36 µM.

`CCOC(=O)c1[nH]c2ccc(Cl)cc2c1C(OC)c1cc(C)cc(C)c1` (stereo unspecified): the half-maximal inhibitory concentration (IC50) in experiment [7] came out at 0.034 µM.

As for `CCn1c(=O)[nH]c2cccc(Oc3cccc4ccccc34)c21`, in experiment [7], the 50% inhibitory concentration (IC50) was 2.27 µM.

As to `CCOC(=O)c1[nH]c2ccc(Cl)cc2c1C(SC)c1cc(C)cc(C)c1` (stereo unspecified), the half-inhibitory concentration (IC50) in experiment [7] came out at 0.06 µM.

As to `CCn1c(=O)[nH]c2cccc(Oc3ccnc(C#N)c3)c21`, the IC50 in experiment [7] came out at 13.3 µM.

Regarding `CCn1c(=O)[nH]c2cccc(Oc3cc(C)cc(C)c3)c21`, in experiment [7], the IC50 stood at 0.303 µM.

Consider `CCn1c(=O)[nH]c2cccc(Oc3cc(C#N)cc(C#N)c3)c21`, for which the concentration for half-maximal inhibition (IC50) in experiment [7] is 0.063 µM.
